In PMC8631740 (Nano Letters, 2021):

Molecular target: PDZ-mNG (Homo sapiens, UniProt Q96RT1)
Assay: Binding kinetics of PDZ-mNG to peptDTWV in fixed COS7 cells
Assay type: cell-based
Conditions: PFA or PFA/GA fixation, compared with kinetics at nanoparticles; result in words

Substance: RGSIDTWV-cooh [peptDTWV]
- effect of fixation on peptDTWV/PDZ-mNG interaction: not affected by fixation
